The text below walks through data of US20250312499A1, “KISSPEPTIN RECEPTOR (KISS1R) TARGETED THERAPEUTICS AND USES THEREOF” (priority 2024, published 2025).

This experiment concerns the target human kisspeptin receptor (Homo sapiens (Human), UniProt Q969F8). The experiment can be described thus: Human KISS1R binding assay (membrane competition binding). The note with it: 90 min at room temperature; competition with 0.2 nM [125I]-metastin (45-54); Flp-In T-Rex 293 kisspeptin membranes; metal complexes nonradioactive Ga, In, Lu; read-out: hKiSSR Binding Ki (90 min). In a few lines: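 Membranes from tetracycline-induced (48 h) Flp-In T-Rex 293 cells expressing receptor, 5–10 μg, incubated 90 min at room temperature with 0.2 nM [125I]-metastin (45-54) and competitor (typically 0–10,000 nM) in Tris/Mg/Ca/EGTA/0.1% BSA, pH 7.4. Filtration, washing, counting; Ki by non-linear regression.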

The structures appear in SMILES notation. Numbered stars: 1 amine (or outer) side, 2 acyl side, 3 side chain; on linkers, the order of the positions; unused ones are H or OH. Square brackets hold non-standard residues; d marks the D form. Peptide text beside a SMILES is read from it. * marks the point of attachment. DOTA = O=C(O)CN1CCN(CC(=O)O)CCN(CC(=O)*)CCN(CC(=O)O)CC1; Ala(9-anthryl) = N[C@@H](Cc1c2ccccc2cc2ccccc12)C(=O)O; Gly(N-(3-F-4-Me-benzyl)) = Cc1ccc(CNCC(=O)*)cc1F; X16 = O=C(c1ccc(-c2ccccc2)c(OCCCN[*:1])c1)[*:2]; Gly(Nα-4-MeO-benzyl) = COc1ccc(CNCC(=O)*)cc1; X4 = O=C(c1ccc(-c2ccccc2OCCCN[*:1])cc1)[*:2]; Api(1-amidino) = N=C(N)N1CCC(N)(C(=O)O)CC1; X1 = O=C(CN1CCC(N[*:1])CC1)[*:2]; 4Pal = N[C@@H](Cc1ccncc1)C(=O)O; 2Thi = N[C@@H](Cc1cccs1)C(=O)O; 4Amb = NCc1ccc(C(=O)O)cc1; Octanoyl = CCCCCCCC(=O)*; Api = NC1(C(=O)O)CCNCC1; Ahx = NCCCCCC(=O)O; azaGly = NNC(=O)O

Sequence of human kisspeptin receptor (Q969F8 whole entry): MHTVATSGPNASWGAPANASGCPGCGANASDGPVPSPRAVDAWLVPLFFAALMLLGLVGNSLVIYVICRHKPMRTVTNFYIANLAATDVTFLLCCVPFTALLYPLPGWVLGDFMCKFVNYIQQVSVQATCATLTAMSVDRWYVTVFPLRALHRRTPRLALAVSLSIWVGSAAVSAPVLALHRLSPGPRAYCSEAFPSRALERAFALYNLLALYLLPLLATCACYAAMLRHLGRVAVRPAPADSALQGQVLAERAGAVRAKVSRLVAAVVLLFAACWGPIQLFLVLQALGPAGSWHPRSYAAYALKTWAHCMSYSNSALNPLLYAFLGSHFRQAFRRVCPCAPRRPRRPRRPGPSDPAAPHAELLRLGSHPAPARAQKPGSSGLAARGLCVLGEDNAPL

For the molecule `Cc1ccc(CNCC(=O)N2CCC(NC(=O)[C@H](CC(C)C)NC(=O)NNC(=O)[C@H](Cc3ccccc3)NC(=O)[C@@H](NC(=O)[C@H](CC(N)=O)NC(=O)c3ccc(CNC(=O)[C@H](Cc4ccc(O)cc4)NC(=O)CNC(=O)CN4CCN(CC(=O)O)CCN(CC(=O)O)CCN(CC(=O)O)CC4)cc3)[C@@H](C)O)(C(=O)N[C@@H](Cc3c[nH]c4ccccc34)C(N)=O)CC2)cc1F` [Compound 213] ({DOTA}-GY[4Amb]NTF[azaGly]L[Api](Gly(N-(3-F-4-Me-benzyl)))W-NH2), the Ki – broadly, the equilibrium dissociation constant of an inhibitor or competing ligand from its target – is below 0.01 µM. The same measure for `Cc1ccc(CNCC(=O)N2CCC(NC(=O)c3ccc(-c4ccccc4)c(OCCNC(=O)[C@H](Cc4ccccc4)NC(=O)CN4CCC(NC(=O)CN5CCN(CC(=O)O)CCN(CC(=O)O)CCN(CC(=O)O)CC5)CC4)c3)(C(=O)N[C@@H](Cc3c[nH]c4ccccc34)C(N)=O)CC2)cc1F` [Compound 214]: below 0.01 µM; for `Cc1ccc(CNCC(=O)N2CCC(NC(=O)c3cc(OCCNC(=O)[C@H](Cc4ccccc4)NC(=O)CN4CCC(NC(=O)CN5CCN(CC(=O)O)CCN(CC(=O)O)CCN(CC(=O)O)CC5)CC4)cc(-c4ccccc4)c3)(C(=O)N[C@@H](Cc3c[nH]c4ccccc34)C(N)=O)CC2)cc1F` [Compound 215]: above 0.1 µM; for `Cc1ccc(CNCC(=O)N2CCC(NC(=O)[C@H](CC(C)C)NC(=O)NNC(=O)c3ccc(-c4ccccc4)c(OCCCNC(=O)CN4CCC(NC(=O)CN5CCN(CC(=O)O)CCN(CC(=O)O)CCN(CC(=O)O)CC5)CC4)c3)(C(=O)N[C@@H](Cc3c[nH]c4ccccc34)C(N)=O)CC2)cc1F` [Compound 216] ({DOTA}-[X1][X16][azaGly]L[Api](Gly(N-(3-F-4-Me-benzyl)))W-NH2): below 0.01 µM. In the case of `Cc1ccc(CNCC(=O)N2CCC(NC(=O)[C@H](CC(C)C)NC(=O)NNC(=O)c3ccc(-c4ccccc4OCCCNC(=O)CN4CCC(NC(=O)CN5CCN(CC(=O)O)CCN(CC(=O)O)CCN(CC(=O)O)CC5)CC4)cc3)(C(=O)N[C@@H](Cc3c[nH]c4ccccc34)C(N)=O)CC2)cc1F` [Compound 217] ({DOTA}-[X1][X4][azaGly]L[Api](Gly(N-(3-F-4-Me-benzyl)))W-NH2) it was below 0.01 µM; in that of `Cc1ccc(CNCC(=O)N2CCC(NC(=O)[C@H](CC(C)C)NC(=O)NNC(=O)[C@H](Cc3cccs3)NC(=O)[C@@H](NC(=O)[C@H](CC(N)=O)NC(=O)[C@H](CCC(=O)O)NC(=O)CN3CCC(NC(=O)CN4CCN(CC(=O)O)CCN(CC(=O)O)CCN(CC(=O)O)CC4)CC3)[C@@H](C)O)(C(=O)N[C@@H](Cc3c[nH]c4ccccc34)C(N)=O)CC2)cc1F` [Compound 218] ({DOTA}-[X1]ENT[2Thi][azaGly]L[Api](Gly(N-(3-F-4-Me-benzyl)))W-NH2), below 0.01 µM; in that of `CC(C)C[C@H](NC(=O)NNC(=O)[C@H](Cc1ccccc1)NC(=O)[C@@H](NC(=O)[C@H](CC(N)=O)NC(=O)[C@H](Cc1c2ccccc2cc2ccccc12)NC(=O)[C@@H](Cc1ccc(O)cc1)NC(=O)CN1CCN(CC(=O)O)CCN(CC(=O)O)CCN(CC(=O)O)CC1)[C@@H](C)O)C(=O)NC1(C(=O)N[C@@H](Cc2ccncc2)C(N)=O)CCN(C(=N)N)CC1` [Compound 221] ({DOTA}-[dY][Ala(9-anthryl)]NTF[azaGly]L[Api(1-amidino)][4Pal]-NH2), below 0.01 µM.

As for `CC(C)C[C@H](NC(=O)NNC(=O)[C@H](Cc1ccccc1)NC(=O)[C@@H](NC(=O)[C@H](CC(N)=O)NC(=O)[C@H](Cc1c2ccccc2cc2ccccc12)NC(=O)[C@@H](Cc1ccc(O)cc1)NC(=O)CCCCCNC(=O)CN1CCN(CC(=O)O)CCN(CC(=O)O)CCN(CC(=O)O)CC1)[C@@H](C)O)C(=O)NC1(C(=O)N[C@@H](Cc2ccncc2)C(N)=O)CCN(C(=N)N)CC1` [Compound 222] ({DOTA-Ahx}-[dY][Ala(9-anthryl)]NTF[azaGly]L[Api(1-amidino)][4Pal]-NH2), the inhibitory constant (Ki) was below 0.01 µM. The same measure for `CCCCCCCC(=O)N[C@@H](CCCCNC(=O)CN1CCN(CC(=O)O)CCN(CC(=O)O)CCN(CC(=O)O)CC1)C(=O)N[C@@H](CC(N)=O)C(=O)N[C@H](C(=O)N[C@@H](Cc1ccccc1)C(=O)NNC(=O)N[C@@H](CC(C)C)C(=O)NC1(C(=O)N[C@@H](Cc2ccncc2)C(N)=O)CCN(C(=N)N)CC1)[C@@H](C)O` [Compound 226] (Octanoyl-K(DOTA)NTF[azaGly]L[Api(1-amidino)][4Pal]-NH2): 0.01 to 0.1 µM. The same measure for `Cc1ccc(CNCC(=O)N2CCC(NC(=O)[C@H](CC(C)C)NC(=O)NNC(=O)[C@H](Cc3ccccc3)NC(=O)[C@@H](NC(=O)CN3CCC(NC(=O)CN4CCN(CC(=O)O)CCN(CC(=O)O)CCN(CC(=O)O)CC4)CC3)[C@@H](C)O)(C(=O)N[C@@H](Cc3c[nH]c4ccccc34)C(N)=O)CC2)cc1F` [Compound 233] ({DOTA}-[X1]TF[azaGly]L[Api](Gly(N-(3-F-4-Me-benzyl)))W-NH2): below 0.01 µM; for `Cc1ccc(CNCC(=O)N2CCC(NC(=O)[C@H](CC(C)C)NC(=O)NNC(=O)[C@H](Cc3ccccc3)NC(=O)[C@@H](NC(=O)[C@H](CCC(=O)O)NC(=O)CN3CCC(NC(=O)CN4CCN(CC(=O)O)CCN(CC(=O)O)CCN(CC(=O)O)CC4)CC3)[C@@H](C)O)(C(=O)N[C@@H](Cc3c[nH]c4ccccc34)C(N)=O)CC2)cc1F` [Compound 234] ({DOTA}-[X1]ETF[azaGly]L[Api](Gly(N-(3-F-4-Me-benzyl)))W-NH2): below 0.01 µM; for `COc1ccc(CNCC(=O)N2CCC(NC(=O)[C@H](CC(C)C)NC(=O)NNC(=O)[C@H](Cc3ccccc3)NC(=O)[C@@H](NC(=O)[C@H](CC(N)=O)NC(=O)CCCCCNC(=O)CN3CCN(CC(=O)O)CCN(CC(=O)O)CCN(CC(=O)O)CC3)[C@@H](C)O)(C(=O)N[C@@H](Cc3ccccc3)C(N)=O)CC2)cc1` [Compound 235] ({DOTA-Ahx}-NTF[azaGly]L[Api](Gly(Nα-4-MeO-benzyl))F-NH2): below 0.01 µM. In the case of `COc1ccc(CNCC(=O)N2CCC(NC(=O)[C@H](CC(C)C)NC(=O)NNC(=O)[C@H](Cc3ccccc3)NC(=O)[C@@H](NC(=O)[C@H](CC(N)=O)NC(=O)[C@H](CCC(=O)O)NC(=O)CCCCCNC(=O)CN3CCN(CC(=O)O)CCN(CC(=O)O)CCN(CC(=O)O)CC3)[C@@H](C)O)(C(=O)N[C@@H](Cc3ccccc3)C(N)=O)CC2)cc1` [Compound 236] ({DOTA-Ahx}-ENTF[azaGly]L[Api](Gly(Nα-4-MeO-benzyl))F-NH2) it was below 0.01 µM; in that of `COc1ccc(CNCC(=O)N2CCC(NC(=O)[C@H](CC(C)C)NC(=O)NNC(=O)[C@H](Cc3ccccc3)NC(=O)[C@@H](NC(=O)[C@H](CC(N)=O)NC(=O)[C@H](CCC(=O)O)NC(=O)CN3CCN(CC(=O)O)CCN(CC(=O)O)CCN(CC(=O)O)CC3)[C@@H](C)O)(C(=O)N[C@@H](Cc3ccccc3)C(N)=O)CC2)cc1` [Compound 237] ({DOTA}-ENTF[azaGly]L[Api](Gly(Nα-4-MeO-benzyl))F-NH2), below 0.01 µM; in that of `Cc1ccc(CNCC(=O)N2CCC(NC(=O)[C@H](CC(C)C)NC(=O)NNC(=O)[C@H](Cc3ccccc3)NC(=O)[C@@H](NC(=O)[C@H](CC(N)=O)NC(=O)[C@H](CCC(=O)O)NC(=O)CCCCCNC(=O)CN3CCN(CC(=O)O)CCN(CC(=O)O)CCN(CC(=O)O)CC3)[C@@H](C)O)(C(=O)N[C@@H](Cc3c[nH]c4ccccc34)C(N)=O)CC2)cc1F` [Compound 238] ({DOTA-Ahx}-ENTF[azaGly]L[Api](Gly(N-(3-F-4-Me-benzyl)))W-NH2), below 0.01 µM.
